# Activity calls are given as the source filed them. The calls are words filed in the database; no cut-off is given here.
# Legend:
# Format in all cases: functional
# [1] = tested on: Staphylococcus epidermidis; assay: Inhibitory activity against MraY/MurG at a concentration of 6.25 ug/mL; No activity
# [2] = tested on: Staphylococcus epidermidis; assay: Inhibitory activity against MraY/MurG at a concentration of 25 ug/mL; No activity
# [3] = tested on: Staphylococcus epidermidis; assay: Inhibitory activity against MraY/MurG at a concentration of 50 ug/mL; No activity
# [4] = tested on: Staphylococcus epidermidis; assay: Inhibitory activity against MraY/MurG at a concentration of 100 ug/mL; No activity
# [5] = tested on: Staphylococcus epidermidis; assay: Compound was tested for reduction in the production of lipid II relative to the control(judged by intensity) on the film, inhibition of either MraY or MurG at a dose of 25 ug/mL
# [6] = tested on: Staphylococcus epidermidis; assay: Compound was tested for reduction in the production of lipid II relative to the control(judged by intensity) on the film, inhibition of either MraY or MurG at a dose of 6.25 ug/mL
# [7] = tested on: Staphylococcus epidermidis; assay: Compound was tested for reduction in the production of lipid II relative to the control(judged by intensity) on the film, inhibition of either MraY or MurG at a dose of 50 ug/mL
# [8] = tested on: Staphylococcus epidermidis; assay: Compound was tested for reduction in the production of lipid II relative to the control(judged by intensity) on the film, inhibition of either MraY or MurG at a dose of 100 ug/mL
# [9] = tested on: Staphylococcus epidermidis; assay: Inhibitory activity against MraY/MurG at a concentration of 100 ug/mL; Not activity
# [10] = tested on: Staphylococcus epidermidis; assay: Inhibitory activity against MraY/MurG at a concentration of 6.25 ug/mL No activity
# [11] = tested on: Staphylococcus epidermidis; assay: Inhibitory activity against MraY/MurG at a concentration of 6.25 ug/mL; Not activity
Structure (SMILES),Inhibitory activity [1],Inhibitory activity [2],Inhibitory activity [3],Inhibitory activity [4],Inhibitory activity [5],Inhibitory activity [6],Inhibitory activity [7],Inhibitory activity [8],Inhibitory activity [9],Inhibitory activity [10],Inhibitory activity [11]
COc1ccc(NC(=O)NC[C@H]2O[C@@H](OC(C3C(=O)N(c4ccc(OC)cc4)C(=O)N3CCCNC(=O)[C@@H](NC(=O)[C@@H](NC(=O)N[C@H](C(=O)O)C(C)C)[C@@H]3CCN=C(N)N3)[C@@H](O)C(C)C)[C@H]3O[C@@H](n4ccc(=O)[nH]c4=O)[C@H](O)[C@@H]3O)[C@H](OC)[C@@H]2O)cc1 (some centres undefined),Active,Active,Active,Active,–,–,–,–,–,–,–
CO[C@H]1[C@H](OC([C@H](NCCCNC(=O)[C@@H](NC(=O)[C@@H](NC(=O)N[C@H](C(=O)O)C(C)C)[C@@H]2CCN=C(N)N2)[C@@H](O)C(C)C)C(=O)O)[C@H]2O[C@@H](n3ccc(=O)[nH]c3=O)[C@H](O)[C@@H]2O)O[C@H](CN)[C@H]1O (some centres undefined),–,–,–,–,Active,Active,Active,Active,–,–,–
CCCCCCCCNC(=O)NC[C@H]1O[C@@H](OC(C2C(=O)N(CCCCCCCC)C(=O)N2CCCNC(=O)[C@@H](NC(=O)[C@@H](NC(=O)N[C@H](C(=O)O)C(C)C)[C@@H]2CCN=C(N)N2)[C@@H](O)C(C)C)[C@H]2O[C@@H](n3ccc(=O)[nH]c3=O)[C@H](O)[C@@H]2O)[C@H](OC)[C@@H]1O (some centres undefined),Active,Active,Active,–,–,–,–,–,Active,–,–
CO[C@H]1[C@H](OC([C@H]2O[C@@H](n3ccc(=O)[nH]c3=O)[C@H](O)[C@@H]2O)[C@@H](C(=O)O)N(CCCCCCCCCCCCN2CCOCC2)CCCNC(=O)[C@@H](NC(=O)[C@@H](NC(=O)N[C@H](C(=O)O)C(C)C)[C@@H]2CCN=C(N)N2)[C@@H](O)C(C)C)O[C@H](CN)[C@H]1O (some centres undefined),inactive,inactive,Active,–,–,–,–,Active,–,–,–
CCCCCCCCCCCCN(CCCNC(=O)[C@@H](NC(=O)[C@@H](NC(=O)N[C@H](C(=O)O)C(C)C)[C@@H]1CCN=C(N)N1)[C@@H](O)C(C)C)[C@H](C(=O)O)C(O[C@@H]1O[C@H](CN)[C@@H](O)[C@H]1OC)[C@H]1O[C@@H](n2ccc(=O)[nH]c2=O)[C@H](O)[C@@H]1O (some centres undefined),–,inactive,–,–,–,–,Active,Active,–,inactive,–
CO[C@H]1[C@H](OC(C2C(=O)N(Cc3ccccc3)C(=O)N2CCCNC(=O)[C@@H](NC(=O)[C@@H](NC(=O)N[C@H](C(=O)O)C(C)C)[C@@H]2CCN=C(N)N2)[C@@H](O)C(C)C)[C@H]2O[C@@H](n3ccc(=O)[nH]c3=O)[C@H](O)[C@@H]2O)O[C@H](CN)[C@H]1O (some centres undefined),–,–,–,–,Active,Active,Active,Active,–,–,–
CO[C@H]1[C@H](OC([C@H](NCCCNC(=O)[C@@H](NC(=O)[C@@H](NC(=O)N[C@H](C(=O)O)C(C)C)[C@@H]2CCN=C(N)N2)[C@@H](O)C(C)C)C(=O)O)[C@H]2O[C@@H](n3ccc(=O)[nH]c3=O)[C@H](O)[C@@H]2O)O[C@H](C/N=C(C)/C=C(/C)O)[C@H]1O (some centres undefined),Active,Active,Active,Active,–,–,–,–,–,–,–
CCCCCCNC(=O)NC[C@H]1O[C@@H](OC(C2C(=O)N(CCCCCC)C(=O)N2CCCNC(=O)[C@@H](NC(=O)[C@@H](NC(=O)N[C@H](C(=O)O)C(C)C)[C@@H]2CCN=C(N)N2)[C@@H](O)C(C)C)[C@H]2O[C@@H](n3ccc(=O)[nH]c3=O)[C@H](O)[C@@H]2O)[C@H](OC)[C@@H]1O (some centres undefined),Active,Active,Active,Active,–,–,–,–,–,–,–
CO[C@H]1[C@H](OC(C2C(=O)N(c3ccc(F)cc3)C(=O)N2CCCNC(=O)[C@@H](NC(=O)[C@@H](NC(=O)N[C@H](C(=O)O)C(C)C)[C@@H]2CCN=C(N)N2)[C@@H](O)C(C)C)[C@H]2O[C@@H](n3ccc(=O)[nH]c3=O)[C@H](O)[C@@H]2O)O[C@H](CN)[C@H]1O (some centres undefined),–,–,–,–,Active,–,Active,Active,–,–,Active
CCCCCCCCCCCCN1C(=O)C(C(O[C@@H]2O[C@H](CN)[C@@H](O)[C@H]2OC)[C@H]2O[C@@H](n3ccc(=O)[nH]c3=O)[C@H](O)[C@@H]2O)N(CCCNC(=O)[C@@H](NC(=O)[C@@H](NC(=O)N[C@H](C(=O)O)C(C)C)[C@@H]2CCN=C(N)N2)[C@@H](O)C(C)C)C1=O (some centres undefined),–,–,–,–,Active,Active,Active,Active,–,–,–
CCCCCN(CCCNC(=O)[C@@H](NC(=O)[C@@H](NC(=O)N[C@H](C(=O)O)C(C)C)[C@@H]1CCN=C(N)N1)[C@@H](O)C(C)C)[C@H](C(=O)O)C(O[C@@H]1O[C@H](CN)[C@@H](O)[C@H]1OC)[C@H]1O[C@@H](n2ccc(=O)[nH]c2=O)[C@H](O)[C@@H]1O (some centres undefined),inactive,inactive,Active,–,–,–,–,Active,–,–,–
CCCCCNC[C@H]1O[C@@H](OC([C@H]2O[C@@H](n3ccc(=O)[nH]c3=O)[C@H](O)[C@@H]2O)[C@@H](C(=O)O)N(CCCCC)CCCNC(=O)[C@@H](NC(=O)[C@@H](NC(=O)N[C@H](C(=O)O)C(C)C)[C@@H]2CCN=C(N)N2)[C@@H](O)C(C)C)[C@H](OC)[C@@H]1O (some centres undefined),inactive,inactive,inactive,inactive,–,–,–,–,–,–,–
CO[C@H]1[C@H](OC(C2C(=O)N(c3ccc(F)cc3)C(=O)N2CCCNC(=O)[C@@H](NC(=O)[C@@H](NC(=O)N[C@H](C(=O)O)C(C)C)[C@@H]2CCN=C(N)N2)[C@@H](O)C(C)C)[C@H]2O[C@@H](n3ccc(=O)[nH]c3=O)[C@H](O)[C@@H]2O)O[C@H](CNC(=O)Nc2ccc(F)cc2)[C@H]1O (some centres undefined),Active,Active,Active,Active,–,–,–,–,–,–,–
CCCCCCCCCCCCNC(=O)NC[C@H]1O[C@@H](OC(C2C(=O)N(CCCCCCCCCCCC)C(=O)N2CCCNC(=O)[C@@H](NC(=O)[C@@H](NC(=O)N[C@H](C(=O)O)C(C)C)[C@@H]2CCN=C(N)N2)[C@@H](O)C(C)C)[C@H]2O[C@@H](n3ccc(=O)[nH]c3=O)[C@H](O)[C@@H]2O)[C@H](OC)[C@@H]1O (some centres undefined),Active,Active,Active,Active,–,–,–,–,–,–,–
CO[C@H]1[C@H](OC([C@H]2O[C@@H](n3ccc(=O)[nH]c3=O)[C@H](O)[C@@H]2O)[C@@H](C(=O)O)N(CCCNC(=O)[C@@H](NC(=O)[C@@H](NC(=O)N[C@H](C(=O)O)C(C)C)[C@@H]2CCN=C(N)N2)[C@@H](O)C(C)C)Cc2ccc(-c3ccccc3)cc2)O[C@H](CNCc2ccc(-c3ccccc3)cc2)[C@H]1O (some centres undefined),Active,Active,Active,Active,–,–,–,–,–,–,–
CCCCCN1C(=O)C(C(O[C@@H]2O[C@H](CN)[C@@H](O)[C@H]2OC)[C@H]2O[C@@H](n3ccc(=O)[nH]c3=O)[C@H](O)[C@@H]2O)N(CCCNC(=O)[C@@H](NC(=O)[C@@H](NC(=O)N[C@H](C(=O)O)C(C)C)[C@@H]2CCN=C(N)N2)[C@@H](O)C(C)C)C1=O (some centres undefined),inactive,inactive,Active,–,–,–,–,Active,–,–,–
